Key:
SW620 cells = assay: SW620 human colon cancer xenograft in athymic nude mice; conditions: 100µg/day for 2 weeks, intraperitoneal osmotic minipump from day 8, day 22; for mean tumour weight: control 793; for Mean tumour weight (±SD): control 793 ± 328 mg
Protocol: 8 x 10^6 SW620 cells/100µl PBS were injected subcutaneously into the left flank. […] Control mice received osmotic pumps filled with Ringer's solution. All mice were sacrificed on day 22 and tumour weights were then determined.

MCF7 (mammary carcinoma) = assay: Cell proliferation assay (WST-1); type: cell-based; conditions: 25 and 50 µM, 24 h, 48 h and 72 h, WST-1, Figs. 2a-f
Protocol: (§1) Rac-1 inhibitor compounds were tested in cell proliferation assays performed with following cancer cell lines: MCF7 (mammary carcinoma), SW620 (colon carcinoma), CRL 2505 (prostate carcinoma). The level of proliferation was measured at 24 hours (h), 48 h and 72 h after in vitro induction of compounds. Two different concentrations of compounds were tested for each cell line (25 and 50 µM, see Figs. 2a-f; the asteriks indicates significant change versus control group (no compound induction) at all incubation points (p<0.02)).
(§2) The proliferation assay was performed with Cell Proliferation Reagent WST-1 (Roche Cat. No. 1644 807). The cells were cultured 2 x 10^4 cells/well in microplates (96 wells, flat bottom). The Cell Proliferation Reagent WST-1 (10 µl/well) was added to each experimental group (Figs. 2a-f). After 4 hours of incubation (37°C) the absorbance was measured by Microplate (ELISA) reader at 450 nm optical density (OD). The reference wavelength was 620 nm.
(§3) All experimental compounds (compounds 1, 2, 3-10, 18, 53) were solved in 1% DMSO solution. Therefore, additional experimental group (1% DMSO) was used to examine proliferation activity of used cell lines in presence of 1% DMSO.
(§4) All measurements were corrected to the blank absorbance (medium with 10 µl Cell Proliferation Reagent WST-1, no cells).

SW620 (colon carcinoma) = assay: Cell proliferation assay (WST-1); type: cell-based; conditions: 25 and 50 µM, 24 h, 48 h and 72 h, WST-1, Figs. 2a-f
Protocol: as §1, §2, §3, §4

[1] = tested on: CRL 2505 (prostate carcinoma); assay: Cell proliferation assay (WST-1); type: cell-based; conditions: 25 and 50 µM, 24 h, 48 h and 72 h, WST-1, Figs. 2a-f
Protocol: as §1, §2, §3, §4

MCF-7 cells = assay: MCF-7 human breast cancer xenograft in athymic nude mice; type: in vivo; conditions: intraperitoneal osmotic minipump from day 24, day 38, control 210 ± 31 mg
Protocol: On the indicated days, tumour sizes were determined with a caliper and tumour volumes calculated according to the following formula: tumour volume = [(length x width^2) x […]].
All mice were sacrificed on day 38 and tumour weights were then determined.

PC-3 = conditions: Rac-hyperactive prostate cancer cells; cited from earlier work

CCN(CC)CCCC(C)Nc1nc(C)cc(NCCc2c[nH]c3ccc(O)cc23)n1 (racemic) [Compound 2, 3-{2-[2-(4-Diethylamino-1-methyl-butylamino)-6-methyl-pyrimidin-4-ylamino]-ethyl}-1H-indol-5-ol]
Mean tumour weight (% of control (co)) (SW620 cells): 77 % of control (co)
mean tumour weight (SW620 cells): 612 mg
Mean tumour weight (±SD) (SW620 cells): 612 mg
inhibiting proliferation of the tumour cells (MCF7 (mammary carcinoma)): effective in inhibiting proliferation
inhibiting proliferation of the tumour cells (SW620 (colon carcinoma)): effective in inhibiting proliferation
inhibiting proliferation of the tumour cells [1]: effective in inhibiting proliferation
mean tumour weight (MCF-7 cells; 25µg per day): 185 ± 54 mg
mean tumour weight (MCF-7 cells; 50µg per day): 152 ± 70 mg
mean tumour weight (MCF-7 cells; 100µg per day): 118 ± 60 mg

CCN(CC)CCCC(C)Nc1nc(C)cc(Nc2ccc3nc(C)cc(N)c3c2)n1 (racemic) [NSC23766, N6-(2-((4-(diethylamino)-1-methylbutyl)amino)-6-methyl-4-pyrimidinyl)-2-methyl-4,6-quinolinediamine, reference compound]
proliferation, anchorage independent growth, and invasion (PC-3): able to inhibit proliferation, anchorage independent growth, and invasion
Mean tumour weight (% of control (co)) (SW620 cells): 107 % of control (co)
mean tumour weight (SW620 cells): 846 mg
Mean tumour weight (±SD) (SW620 cells): 846 ± 256 mg

CCN(CC)CCCC(C)Nc1nc(C)cc(NCCc2c[nH]c3ccccc23)n1 (stereo not shown) [Compound 1, N2-(4-Diethylamino-1-methyl-butyl)-N4-[2-(1H-indol-3-yl)-ethyl]-6-methyl-pyrimidine-2,4-diamine]
Mean tumour weight (% of control (co)) (SW620 cells): 74 % of control (co)
mean tumour weight (SW620 cells): 583 mg
Mean tumour weight (±SD) (SW620 cells): 583 ± 151 mg
inhibiting proliferation of the tumour cells (MCF7 (mammary carcinoma)): effective in inhibiting proliferation
inhibiting proliferation of the tumour cells (SW620 (colon carcinoma)): effective in inhibiting proliferation
inhibiting proliferation of the tumour cells [1]: effective in inhibiting proliferation
